Test results reported in ChEMBL document CHEMBL1201862, “PubChem BioAssay data set” (2004).
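Grown in 96-well plates, cells were treated for 48 hours with each compound at five concentrations. Insufficient inhibition: endpoint recorded as highest concentration tested. GI50: concentration for 50% inhibition of growth.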 Active and inactive are the calls of the source. Cut-off read from the data, not from the text of the source: active = GI50 up to about 1.1 µM and inactive = higher.

How the values were obtained:
Test in all cases: inhibition of tumour cell growth, NCI panel, 48 h
NCI/ADR-RES = tested on: NCI/ADR-RES
LOX IMVI = tested on: LOX IMVI
SK-MEL-5 = tested on: SK-MEL-5
SW-620 = tested on: SW-620
UO-31 = tested on: UO-31
Malme-3M = tested on: Malme-3M
UACC-62 = tested on: UACC-62
SF-295 = tested on: SF-295
MDA-N = tested on: MDA-N
OVCAR-5 = tested on: OVCAR-5
DU-145 = tested on: DU-145
SN12C = tested on: SN12C
SNB-75 = tested on: SNB-75
NCI-H23 = tested on: NCI-H23
IGROV-1 = tested on: IGROV-1
HCT-15 = tested on: HCT-15
OVCAR-3 = tested on: OVCAR-3
Hs-578T = tested on: Hs-578T
OVCAR-8 = tested on: OVCAR-8
HOP-62 = tested on: HOP-62
EKVX = tested on: EKVX
RPMI-8226 = tested on: RPMI-8226
OVCAR-4 = tested on: OVCAR-4
786-0 = tested on: 786-0
MDA-MB-435 = tested on: MDA-MB-435
SK-OV-3 = tested on: SK-OV-3
M14 = tested on: M14
CAKI-1 = tested on: CAKI-1
NCI-H522 = tested on: NCI-H522
RXF 393 = tested on: RXF 393
SK-MEL-2 = tested on: SK-MEL-2
HCT-116 = tested on: HCT-116
UACC-257 = tested on: UACC-257
K562 = tested on: K562
NCI-H226 = tested on: NCI-H226
SK-MEL-28 = tested on: SK-MEL-28
SF-539 = tested on: SF-539
T47D = tested on: T47D
TK-10 = tested on: TK-10
MCF7 = tested on: MCF7
ACHN = tested on: ACHN
COLO 205 = tested on: COLO 205
SNB-19 = tested on: SNB-19
MDA-MB-231 = tested on: MDA-MB-231
BT-549 = tested on: BT-549
HT-29 = tested on: HT-29
NCI-H460 = tested on: NCI-H460
PC-3 = tested on: PC-3
KM12 = tested on: KM12
SF-268 = tested on: SF-268
HOP-92 = tested on: HOP-92
A498 = tested on: A498
U-251 = tested on: U-251
A549 = tested on: A549
HL-60 = tested on: HL-60
CCRF-CEM = tested on: CCRF-CEM
HCC 2998 = tested on: HCC 2998
MOLT-4 = tested on: MOLT-4

Measured: GI50

c1cc(NNc2cccc(-c3nnn[nH]3)c2)cc(-c2nnn[nH]2)c1
inactive: NCI/ADR-RES > 100 µM | LOX IMVI > 100 µM | SK-MEL-5 > 100 µM | SW-620 > 100 µM | UO-31 > 100 µM | Malme-3M > 100 µM | UACC-62 > 100 µM | SF-295 > 100 µM | MDA-N > 100 µM | OVCAR-5 > 100 µM | DU-145 > 100 µM | SN12C > 100 µM | SNB-75 > 100 µM | NCI-H23 > 100 µM | IGROV-1 > 100 µM | OVCAR-3 > 100 µM | Hs-578T > 100 µM | OVCAR-8 > 100 µM | HOP-62 > 100 µM | EKVX > 100 µM | RPMI-8226 > 100 µM | OVCAR-4 > 100 µM | 786-0 > 100 µM | MDA-MB-435 > 100 µM | SK-OV-3 > 100 µM | M14 > 100 µM | CAKI-1 > 100 µM | NCI-H522 > 100 µM | RXF 393 > 100 µM | SK-MEL-2 > 100 µM | HCT-116 > 100 µM | UACC-257 > 100 µM | K562 > 100 µM | NCI-H226 > 100 µM | SK-MEL-28 > 100 µM | SF-539 > 100 µM | T47D > 100 µM | TK-10 > 100 µM | MCF7 > 100 µM | ACHN > 100 µM | COLO 205 > 100 µM | SNB-19 > 100 µM | MDA-MB-231 > 100 µM | BT-549 > 100 µM | HT-29 > 100 µM | NCI-H460 > 100 µM | PC-3 > 100 µM | KM12 > 100 µM | SF-268 > 100 µM | HOP-92 > 100 µM | A498 > 100 µM | U-251 > 100 µM | A549 > 100 µM
> 100 µM: HCT-15

CNC(=S)c1nnsc1N
> 100 µM: HCT-15
inactive: NCI/ADR-RES > 100 µM | LOX IMVI > 100 µM | SK-MEL-5 14 µM | SW-620 > 100 µM | UO-31 > 100 µM | Malme-3M > 100 µM | UACC-62 > 100 µM | SF-295 > 100 µM | MDA-N > 100 µM | OVCAR-5 > 100 µM | DU-145 > 100 µM | SN12C > 100 µM | SNB-75 > 100 µM | NCI-H23 > 100 µM | IGROV-1 2.99 µM | Hs-578T > 100 µM | OVCAR-8 > 100 µM | HOP-62 > 100 µM | EKVX > 100 µM | OVCAR-4 > 100 µM | 786-0 > 100 µM | CCRF-CEM > 100 µM | MDA-MB-435 > 100 µM | SK-OV-3 > 100 µM | M14 > 100 µM | CAKI-1 > 100 µM | NCI-H522 9.14 µM | RXF 393 > 100 µM | SK-MEL-2 > 100 µM | HCT-116 66.4 µM | UACC-257 > 100 µM | K562 21.7 µM | NCI-H226 > 100 µM | SK-MEL-28 > 100 µM | SF-539 > 100 µM | T47D 2.03 µM | TK-10 > 100 µM | ACHN > 100 µM | MDA-MB-231 > 100 µM | BT-549 > 100 µM | HCC 2998 29.5 µM | PC-3 9.93 µM | KM12 11.6 µM | SF-268 > 100 µM | A498 87.3 µM | MOLT-4 > 100 µM | U-251 > 100 µM | A549 > 100 µM
active: OVCAR-3 0.479 µM | HL-60 0.0115 µM | RPMI-8226 0.9 µM | MCF7 0.918 µM | COLO 205 0.043 µM | NCI-H460 0.71 µM

CC(C)(C)c1cc(C(CO)OCCOCCO)cc(C(C)(C)C)c1O (centres undefined)
> 100 µM: HCT-15
inactive: NCI/ADR-RES > 100 µM | LOX IMVI > 100 µM | SK-MEL-5 > 100 µM | SW-620 > 100 µM | UO-31 > 100 µM | Malme-3M > 100 µM | UACC-62 > 100 µM | SF-295 > 100 µM | MDA-N > 100 µM | OVCAR-5 > 100 µM | DU-145 > 100 µM | SN12C > 100 µM | SNB-75 > 100 µM | NCI-H23 > 100 µM | IGROV-1 > 100 µM | OVCAR-3 > 100 µM | Hs-578T > 100 µM | OVCAR-8 > 100 µM | HOP-62 > 100 µM | EKVX > 100 µM | RPMI-8226 > 100 µM | OVCAR-4 > 100 µM | 786-0 > 100 µM | CCRF-CEM > 100 µM | MDA-MB-435 > 100 µM | SK-OV-3 > 100 µM | M14 > 100 µM | CAKI-1 > 100 µM | NCI-H522 > 100 µM | RXF 393 > 100 µM | SK-MEL-2 > 100 µM | HCT-116 > 100 µM | UACC-257 > 100 µM | K562 > 100 µM | NCI-H226 > 100 µM | SK-MEL-28 > 100 µM | SF-539 > 100 µM | T47D > 100 µM | TK-10 > 100 µM | MCF7 > 100 µM | ACHN > 100 µM | COLO 205 > 100 µM | SNB-19 > 100 µM | MDA-MB-231 > 100 µM | BT-549 > 100 µM | HT-29 > 100 µM | PC-3 > 100 µM | KM12 > 100 µM | SF-268 > 100 µM | HOP-92 > 100 µM | A498 > 100 µM | U-251 > 100 µM | A549 > 100 µM

O=C(/C=C/c1ccccc1)CCc1c(O)c2ccccc2oc1=O
76.7 µM: HCT-15
inactive: NCI/ADR-RES > 100 µM | LOX IMVI 52.5 µM | SK-MEL-5 80.5 µM | SW-620 53.8 µM | UO-31 63.2 µM | Malme-3M > 100 µM | UACC-62 71 µM | SF-295 > 100 µM | MDA-N 71.9 µM | OVCAR-5 > 100 µM | DU-145 > 100 µM | SN12C > 100 µM | SNB-75 > 100 µM | NCI-H23 65.5 µM | IGROV-1 > 100 µM | OVCAR-3 49.4 µM | Hs-578T > 100 µM | OVCAR-8 > 100 µM | EKVX 83 µM | HL-60 > 10 µM | RPMI-8226 32.3 µM | OVCAR-4 76.9 µM | 786-0 > 100 µM | CCRF-CEM 45.4 µM | MDA-MB-435 67.9 µM | SK-OV-3 > 100 µM | M14 > 100 µM | CAKI-1 > 100 µM | NCI-H522 74.3 µM | SK-MEL-2 71.9 µM | HCT-116 35.7 µM | UACC-257 > 100 µM | K562 49.4 µM | NCI-H226 > 100 µM | SK-MEL-28 > 100 µM | SF-539 > 100 µM | T47D > 100 µM | MCF7 60.4 µM | ACHN > 100 µM | COLO 205 89.1 µM | SNB-19 > 100 µM | MDA-MB-231 44 µM | BT-549 32.4 µM | HT-29 > 100 µM | HCC 2998 > 100 µM | NCI-H460 87.9 µM | PC-3 43.9 µM | KM12 40.8 µM | SF-268 > 100 µM | HOP-92 18 µM | A498 74.5 µM | MOLT-4 27.7 µM | U-251 50.9 µM | A549 83.8 µM

COc1ccc2c(c1)/C(=C\c1c(-c3ccccc3)nc3n1CCS3)C(=O)N2
inactive: NCI/ADR-RES 4.5 µM | LOX IMVI 7.64 µM | SK-MEL-5 5.08 µM | SW-620 2.99 µM | UO-31 9.82 µM | Malme-3M 12.2 µM | UACC-62 4.83 µM | SF-295 3.79 µM | MDA-N 1.87 µM | OVCAR-5 14.8 µM | DU-145 16.3 µM | SN12C 12.4 µM | SNB-75 12.8 µM | NCI-H23 11.5 µM | IGROV-1 4.92 µM | OVCAR-3 3.82 µM | Hs-578T 11 µM | OVCAR-8 14.6 µM | HOP-62 10.5 µM | EKVX 12.8 µM | HL-60 3.04 µM | RPMI-8226 5.26 µM | 786-0 11.9 µM | CCRF-CEM 4.1 µM | MDA-MB-435 1.53 µM | SK-OV-3 12.7 µM | M14 6.9 µM | CAKI-1 4.99 µM | NCI-H522 4.63 µM | RXF 393 13.6 µM | SK-MEL-2 5.25 µM | HCT-116 5.01 µM | UACC-257 12.2 µM | K562 2.94 µM | SK-MEL-28 11.1 µM | SF-539 5.9 µM | T47D 7.5 µM | TK-10 10.7 µM | MCF7 4.62 µM | ACHN 11.5 µM | COLO 205 3.27 µM | SNB-19 49.7 µM | MDA-MB-231 4.03 µM | BT-549 9.51 µM | HT-29 3.71 µM | HCC 2998 10.6 µM | NCI-H460 3.52 µM | PC-3 2.97 µM | KM12 3.33 µM | SF-268 9.2 µM | HOP-92 12.9 µM | A498 5.05 µM | MOLT-4 2.78 µM | U-251 7.28 µM | A549 5.57 µM
4.38 µM: HCT-15
